Tests used:
[1] = test system: human bronchial epithelial cells; assay: Clonogenic cell survival assay, bronchial epithelial cells with PDGF-AB (Example 3); format: cell-based; conditions: 10 ng/ml PDGF-AB, 14 days
Protocol: Primary isolated human bronchial epithelial cells (NHBE) were used in this assay sourced from the American Tissue Culture Collection (Normal, Human (ATCC® BEAS-2B™)) and were cultured up to passage 6. […].
A clonogenic cell survival assay determines the ability of a cell to proliferate indefinitely. Cells were plated with increasing numbers (102 to 5×10^4) in 25 cm^2 flasks. SU9518, SU9518, a known inhibitor PDGF that has shown the ability to reduce radiation-induced fibroblast and endothelial cell activation, and phenylcapsaicin were used as positive controls. The cells were incubated with 0-10 μM (3% DMSO aqueous) of phenylcapsaicin, SU9518, and compounds 1 and 3-7 separately in the presence of 10 ng/ml PDGF-AB (Sigma Aldrich). The flasks were returned to the incubator for 14 days, after which they were stained with crystal violet (Sigma Aldrich). The colonies were counted and the surviving percentage was determined for clonogenic survival after correcting for plating efficiency.

[2] = Rage Paulsen et al. 2018; cited from earlier work

## COc1cc(CNC(=O)CCCCC#Cc2ccccc2)ccc1O [Compound 2, N-(4-hydroxy-3-methoxybenzyl)-7-phenylhept-6-ynamide]
[1]; 0-10 μM
  effect on clonogenic survival / PDGF inhibition (words): reduction in the survival fraction of endothelial cells in a dose dependent manner
[1]; 0.10 μM
  Clonogenic Survival Assay (percent): 83%
[1]; 0.10 μM, listed as phenylcapsaicin
  Clonogenic Survival Assay (percent): 83%
[1]; 0.50 μM
  Clonogenic Survival Assay (percent): 59%
[1]; 1.00 μM
  Clonogenic Survival Assay (percent): 41%
[1]; 2.00 μM
  Clonogenic Survival Assay (percent): 35%
[1]; 5.00 μM
  Clonogenic Survival Assay (percent): 35%
[1]; 10.00 μM
  Clonogenic Survival Assay (percent): 32%
[1]; 10.00 μM, listed as phenylcapsaicin
  Clonogenic Survival Assay (percent): 32%
[2]
  gene mutations and chromosomal damage: safe with regards to gene mutations and chromosomal damage
  systemic toxicity: low systemic toxicity

From patent publication US20240277637A1, “CAPSAICIN DERIVATIVES IN THE TREATMENT OF IDIOPATHIC PULMONARY FIBROSIS” (aXichem AB, priority 2021, published 2024)
